In patent US11795190B2, “D-glycero-B-D-heptose 1-phosphate (HMP) conjugates and use for targeted immune modulation” (NATIONAL RESEARCH COUNCIL OF CANADA, priority 2017, dated 2023):

Legend:
[1] = test system: HEK 293T cells encoding an NF-κB-driven luciferase reporter gene; experiment: NF-κB-driven luciferase reporter assay in HEK 293T cells; type: cell-based, human; details: digitonin 20 min; for inflammatory NF-κB response (luciferase activity): FIG. 10, WT HEK 293T, 10 μg/mL or 30 μM/150 μM, luciferase after 6 hrs
Method: (§1) FIGS. 10A-B. Effect of chemically synthesised analogues on human embryonic kidney cells (HEK 293T) encoding an NF-κB-driven luciferase reporter gene. NF-κB luciferase activity was measured in wild type (WT) or TIFA knockout (TIFA KO) cells treated with compounds in the presence of digitonin for 20 min, washed, and then cultured in normal medium without the synthetic compounds for 6 hrs after treatment, before luciferase activity was measured. (A) Cells were treated with 10 μg/mL of the indicated compound. Data are means±standard error mean of technical triplicates. (B) Cells were treated with two different molar concentrations of compound (30 μM or 150 μM). Two batches of DD-β-HBP and DD-β-HMP synthesized independently of one another were tested (batch #1 and batch #2) to assess consistency of the chemical synthesis. Data are means±standard error mean of technical triplicates and are representative of three independent experiments. JS-12: D-glycero-D-manno-heptose; JS-2: D-glycero-D-manno-heptose 7-phosphate; JS-7:D-glycero-β-D-manno-heptose-phosphate; JS-8: D-glycero-α-D-manno-heptose-phosphate; JS-9: β-D-mannose phosphate; JS-6:D-glycero-β-D-manno heptose 1,7-biphosphate; JS-5: D-glycero-α-D-manno heptose 1,7-biphosphate.
FIG. 12. Effects of compounds/products according to the invention on HEK 293T cells encoding an NF-κB-driven luciferase reporter gene. HEK 293T cells were transfected with a plasmid encoding an NF-κB-driven luciferase reporter. After 24 hours, cells were stimulated for 20 minutes in permeabilization buffer (5 μg/mL digitonin) in the presence of water or 10 μg/mL, 30 μg/mL, or 50 μg/mL of indicated synthetic compounds according to the invention. Treatment was removed; cells were washed and incubated for 6 hours incomplete medium. A luciferase assay was then performed. JS-12a control: D-glycero-D-manno heptose. The results are the means±standard error of the mean of three technical replicates. JS-10: 7-O-(Aminoethyl)-D-glycero-β-D-manno-heptopyranose phosphate; JS-11: 7-O-(Aminoethyl)-D-glycero-D-manno-heptopyranose; JS-12: D-glycero-D-manno-heptose; Js-13: pH-Rhodo-7-O-(aminoethyl)-D-glycero-β-D-manno-heptopyranose phosphate.
FIG. 14. Effects of compounds/products according to the invention on HEK 293T cells encoding an NF-κB-driven luciferase reporter gene. HEK 293T cells were transfected with a plasmid encoding an NF-κB-driven luciferase reporter. After 24 hours, cells were stimulated for 20 minutes in permeabilization buffer (5 μg/mL digitonin) in the presence of water, or either 30 μM or 150 μM of indicated synthetic compounds according to the invention. Treatment was removed; cells were washed and incubated for 6 hours in complete medium. A luciferase assay was then performed. […]

[2] = test system: human colonic epithelial cells (HCT 116), wild type; experiment: IL-8 ELISA in wild type HCT 116 cells after digitonin-permeabilised stimulation; type: cell-based; details: WT HCT 116, digitonin 20 min
Method: (§2) Wild type (WT) or TIFA knockout (TIFA KO) cells were treated with compounds in the presence of digitonin for 20 min, treatment was removed, cells were washed and then cultured in normal medium without the synthetic compounds for 6 hr before IL-8 levels in culture supernatants were measured by ELISA. (A) Cells were treated with water or 10 μg/mL of the indicated compound. Data are means±standard error mean of technical triplicates. (B) Cells were treated with the NOD1 agonist C12-iE-DAP (39.8 μM) or with two different molar concentrations of compounds (30 μM or 150 μM). Two batches of dd-β-HBP and dd-β-HMP synthesized independently of one another were tested (batch #1 and batch #2) to assess consistency of the chemical synthesis. Data are means±standard error mean of two (150 μM treatment) or three (all other treatments) independent experiments. Nod1 agonist: C12-iE-DAP (20 μg/ml, 39.8 μM); JS-12: D-glycero-D-manno-heptose; JS-2: D-glycero-D-manno-heptose 7-phosphate; JS-7:D-glycero-β-D-manno-heptose-phosphate; JS-8: d-glycero-α-d-manno-heptose-phosphate; JS-9: β-d-mannose phosphate; JS-6:d-glycero-β-d-manno heptose 1,7-biphosphate; JS-5: d-glycero-α-d-manno heptose 1,7-biphosphate.
(§3) FIG. 11. Stimulation of human colonic epithelial cells by compounds/products according to the invention. Human colonic epithelial cells (HCT 116) that were either wild type (WT) or deficient in TIFA protein expression (knockout, KO) were stimulated for 20 minutes in permeabilization buffer (5 μg/mL digitonin) in the presence of water or 10 μg/mL, 30 μg/mL, or 50 μg/mL of indicated synthetic compounds according to the invention. Treatment was removed, cells were washed, and cells were incubated for 6 hours in complete media before IL-8 levels in culture supernatants was measured by ELISA. The results are the mean±standard error of the mean of three technical replicates. JS-10: 7-O-(Aminoethyl)-D-glycero-β-D-manno-heptopyranose phosphate; JS-11: 7-O-(Aminoethyl) -D-glycero-D-manno-heptopyranose; JS-12: D-glycero-D-manno-heptose; Js-13: pH-Rhodo -7-O-(aminoethyl)-D-glycero-β-D-manno-heptopyranose phosphate.
FIG. 13. […] Treatment was removed, cells were washed, and cells were incubated for 6 hours in complete media before IL-8 levels in culture supernatants were measured by ELISA. The results are the mean±standard error of the mean of two (150 μM treatment) or three (all other treatments) independent experiments. #=none detected, JS-10: 7-O-(Aminoethyl)-d-glycero-β-d-manno-heptopyranose phosphate; JS-14: Biotin-7-O-(aminoethyl)-d-glycero-β-d-manno-heptopyranose phosphate, Nod1 agonist: C12-iE-DAP (20 μg/ml, 39.8 μM).
FIG. 16. […] Treatment was removed, cells were washed, and cells were incubated for 6 hours in complete media before IL-8 levels in culture supernatants were measured by ELISA. […]

[3] = test system: TIFA knockout (TIFA KO) HEK 293T cells encoding an NF-κB-driven luciferase reporter gene; experiment: NF-κB-driven luciferase reporter assay in TIFA knockout HEK 293T cells; type: cell-based, human
Method: as §1

[4] = test system: HCT 116 cells deficient in TIFA protein expression (TIFA KO); experiment: IL-8 ELISA in TIFA knockout HCT 116 cells; type: cell-based, human; details: TIFA KO HCT 116
Method: as §2, §3
(§4) FIG. 13. Stimulation of human colonic epithelial cells by compounds/products according to the invention. Human colonic epithelial cells (HCT 116) that were either wild type (WT) or deficient in TIFA protein expression (knockout, TIFA KO) were stimulated for 20 minutes in permeabilization buffer (5 μg/mL digitonin) in the presence of water, 20 μg/mL of the Nod1 agonist C12-iE-DAP (39.8 μM, which induces inflammation in a TIFA-independent manner) or 30 μM or 150 μM of synthetic compound according to the invention. Treatment was removed, cells were washed, and cells were incubated for 6 hours in complete media before IL-8 levels in culture supernatants were measured by ELISA. The results are the mean±standard error of the mean of two (150 μM treatment) or three (all other treatments) independent experiments. #=none detected, JS-10: 7-O-(Aminoethyl)-d-glycero-β-d-manno-heptopyranose phosphate; JS-14: Biotin-7-O-(aminoethyl)-d-glycero-β-d-manno-heptopyranose phosphate, Nod1 agonist: C12-iE-DAP (20 μg/ml, 39.8 μM).
as §4, with “16.” for “13.”, “of” for “of the mean of two (150 μM treatment) or”, “technical replicates. […]” for “(all other treatments) independent experiments. #=none detected, JS-10: 7-O-(Aminoethyl)-d-glycero-β-d-manno-heptopyranose phosphate; JS-14: Biotin-7-O-(aminoethyl)-d-glycero-β-d-manno-heptopyranose phosphate, Nod1 agonist: C12-iE-DAP (20 μg/ml, 39.8 μM).”

[5] = test system: human macrophage cells (THP-1); experiment: IL-8 ELISA in THP-1 cells after digitonin-permeabilised stimulation; type: cell-based; details: FIG. 15, higher (150 μM) concentrations, digitonin 20 min, IL-8 after 6 hours
Method: FIG. 15. Stimulation of human macrophages by compounds/products according to the invention. Human macrophage cells (THP-1) were stimulated for 20 minutes in permeabilization buffer (5 μg/mL digitonin) in the presence of water, 39.8 μM of the Nod1 agonist C12-iE-DAP (which stimulates in a TIFA-independent manner), or either 30 μM or 150 μM of synthetic compound according to the invention. Treatment was removed, cells were washed, and cells were incubated for 6 hours in complete media before the IL-8 levels in culture supernatants were measured by ELISA. The results are the mean and standard error of the mean of three technical replicates. Nod1 agonist: C12-iE-DAP (20 μg/ml, 39.8 μM); JS-7: JS-7:D-glycero-β-D-manno-heptose-phosphate; JS-10: 7-O-(Aminoethyl)-D-glycero-β-D-manno-heptopyranose phosphate; JS-14: Biotin-7-O-(aminoethyl)-D-glycero-β-D-manno-heptopyranose phosphate.

[6] = FIG. 9, 10 μg/mL or 30 μM/150 μM, IL-8 after 6 hr
[7] = FIG. 10, TIFA KO HEK 293T, 10 μg/mL or 30 μM/150 μM
[8] = FIG. 9, 10 μg/mL or 30 μM/150 μM
[9] = FIG. 13, 30 μM or 150 μM (Nod1 agonist 39.8 μM)
[10] = FIG. 17, TIFA KO cells, 30 μM or 150 μM
[11] = FIG. 16, 30 μM or 150 μM (Nod1 agonist 39.8 μM)

O=P(O)(O)OC[C@@H](O)[C@H]1O[C@@H](OP(=O)(O)O)[C@@H](O)[C@@H](O)[C@@H]1O [JS6, D-glycero-β-D-manno heptose 1,7-biphosphate, reference compound]
inflammatory NF-κB response (luciferase activity) [1]: inflammatory NF-κB response
inflammatory response (IL-8 in culture supernatant) [2, 6]: inflammatory response
activity in TIFA KO cells (NF-κB luciferase), TIFA dependence [3, 7]: relative absence of activity
activity in TIFA KO cells (IL-8), TIFA dependence [4, 8]: relative absence of activity

O=P(O)(O)O[C@@H]1O[C@H]([C@H](O)CO)[C@@H](O)[C@H](O)[C@@H]1O [JS7, D-glycero-β-D-manno-heptose-phosphate]
inflammatory NF-κB response (luciferase activity) [1]: inflammatory NF-κB response similar to that apparent with DD-β-HBP (JS6)
inflammatory response (IL-8 in culture supernatant) [2, 6]: inflammatory response similar to that apparent with DD-β-HBP (JS6)
activity in TIFA KO cells (NF-κB luciferase), TIFA dependence [3, 7]: relative absence of activity
activity in TIFA KO cells (IL-8), TIFA dependence [4, 8]: relative absence of activity

O=C(CCCCC1SCC2NC(=O)NC21)NCCOC[C@@H](O)C1O[C@@H](OP(=O)([O-])[O-])C(O)C(O)[C@@H]1O.[Na+].[Na+] (stereo partly drawn) [JS-14a]
inflammatory response (IL-8 in culture supernatant) [5]: stimulate an inflammatory response
activity in TIFA KO cells (NF-κB luciferase), TIFA dependence ([3]; FIG. 14, TIFA KO cells, 30 μM or 150 μM): relative absence of activity
activity in TIFA KO cells (IL-8), TIFA dependence [4, 9]: relative absence of activity

O=C(CCCCC1SCC2NC(=O)NC21)NCCOCCOCCOCCOCCC(=O)NCCOC[C@@H](O)C1O[C@@H](OP(=O)(O)O)C(O)C(O)[C@@H]1O (stereo partly drawn) [JS-24a, Biotin-PEG4-7-O-(aminoethyl)-D-glycero-β-D-manno-heptopyranose phosphate]
activity in TIFA KO cells (NF-κB luciferase), TIFA dependence [3, 10]: relative absence of activity
activity in TIFA KO cells (IL-8), TIFA dependence [4, 11]: relative absence of activity

CCCCCCCCCCCC(=O)N[C@H](CCC(=O)NC(CCCC(N)C(=O)O)C(=O)O)C(=O)O (stereo partly drawn) [Nod1 agonist, C12-iE-DAP, reference compound]
activity in TIFA KO cells (IL-8), TIFA dependence [4, 9]: not TIFA-dependent
activity in TIFA KO cells (IL-8), TIFA dependence [4, 11]: not TIFA-dependent

Fluorescein-7-O-(aminoethyl)-D-glycero-β-D-manno-heptopyranose phosphate [JS-25a]
activity in TIFA KO cells (NF-κB luciferase), TIFA dependence [3, 10]: relative absence of activity
activity in TIFA KO cells (IL-8), TIFA dependence [4, 11]: relative absence of activity

pH-Rhodo-7-O-(aminoethyl)-D-glycero-β-D-manno-heptopyranose phosphate [JS-13a]
inflammatory response (NF-κB luciferase) ([1]; FIG. 12, HEK 293T, 10, 30 or 50 μg/mL, luciferase after 6 hours): strong inflammatory response
inflammatory response (IL-8 in culture supernatant) ([2]; FIG. 11, 10, 30 or 50 μg/mL, IL-8 after 6 hours): strong inflammatory response
activity in TIFA KO cells (NF-κB luciferase), TIFA dependence ([3]; FIG. 12, TIFA KO cells, 10, 30 or 50 μg/mL): relative absence of activity
activity in TIFA KO cells (IL-8), TIFA dependence ([4]; FIG. 11, 10, 30 or 50 μg/mL): relative absence of activity
